From patent US20050043534A1, “Modulators of ceramidase and methods of used based thereon” (priority 2001, published 2005)
Where “and” joins values, the source holds several entries; their conditions need not be identical. Identical values can stand only once. Entries after “also recorded” stand apart in the source; their conditions may differ.

Biological target: mitochondrial ceramidase (Rattus norvegicus, UniProt Q91XT9)
Test: mitochondrial ceramidase (mt-CDase) activity, radioactive assay or HPLC assay
Assay type: biochemical
Conditions: for IC50: substrate D-erythro-ceramide 50 μM; for IC50 (50% inhibition of mt-CDase activity): substrate D-erythro-ceramide 0.625 mole %; for type of inhibition (double reciprocal analysis: Km increased, Vmax unchanged): varying D-erythro-ceramide concentration; for increase in ceramide hydrolysis: tested at 0-5 mole % (0-400 μM), [3H]-C16-ceramide 0.625 mole %; for extent of inhibition of ceramidase: sphingosine stereoisomers at higher concentrations (FIG. 4b); for effect on mt-CDase activity (in words): concentrations as stated at the place; for inhibition at 50 µM: read-out: inhibition (maximal inhibition) of mt-CDase activity; for inhibition of mt-CDase activity: inhibitor at 0.6 mole %
Experimental: The enzymatic activity of mitochondrial ceramidase was determined by either one of the two following methods:
a. Radioactive assay: The mt-CDase activity was determined by measuring the release of radioactive fatty acid from tritiated ceramide ([^3H]-C16-Cer), labeled in the acyl chain. Briefly, organic solutions of ceramide and its analogues were initially mixed together, solvents were completely evaporated under nitrogen, then the dried lipids were dispersed in Triton-X 100 by sonication and vigorous vortexing. The reaction assay contained (in a final volume of 200 μl): enzyme (5-10 ng) and 10 nmoles of tritiated C16-ceramide (1×10^5 dpm) delivered in 100 μl of 1% Triton X-100 micelles in a glycine buffer pH 9.5 (200 mM).
b. HPLC-assay: The Mt-CDase activity was also determined by measuring the amount of sphingosine released. Basically the assay was initially the same as described above but using non-radioactive ceramide. The reaction was stopped with 800 μl of chloroform: methanol (2:1 v/v) mixture followed by the addition of phyto-sphingosine (0.5 nmoles) and dihydro-sphingosine (1 nmole) as internal standard and carrier, respectively. The reaction mix was then extracted with NaOH (50 μl, 1N), and the lower chloroform layer containing the sphingosine was further washed with water (100 μl) and dried. The released sphingosine was quantified as the ortho-phthaldehyde (OPA) derivatives as described (30). […] The solvent system was methyl alcohol: potassium phosphate buffer (5 mM), pH 7.0 (90:10 v/v) at a flow rate of 1 ml/min. […] Activity was determined relative to the phytosphingosine OPA peak.
The effects of various compounds of the invention which are stereochemical and structural analogues of ceramide and sphingosine on mt-CDase were investigated. […] Results were expressed as percent of the control ceramidase activity.

[1] = Table 1, ceramide analogues, hydrolysis of D-erythro-C16 or C18-ceramide at 0.625 mole % (50 μM)
[2] = Table 2, sphingosine analogues, hydrolysis of D-erythro-ceramide at 0.625 mole % (50 μM)
[3] = inhibitor at 0.625 mole % (50 μM)

Sequence of mitochondrial ceramidase (Q91XT9 whole entry): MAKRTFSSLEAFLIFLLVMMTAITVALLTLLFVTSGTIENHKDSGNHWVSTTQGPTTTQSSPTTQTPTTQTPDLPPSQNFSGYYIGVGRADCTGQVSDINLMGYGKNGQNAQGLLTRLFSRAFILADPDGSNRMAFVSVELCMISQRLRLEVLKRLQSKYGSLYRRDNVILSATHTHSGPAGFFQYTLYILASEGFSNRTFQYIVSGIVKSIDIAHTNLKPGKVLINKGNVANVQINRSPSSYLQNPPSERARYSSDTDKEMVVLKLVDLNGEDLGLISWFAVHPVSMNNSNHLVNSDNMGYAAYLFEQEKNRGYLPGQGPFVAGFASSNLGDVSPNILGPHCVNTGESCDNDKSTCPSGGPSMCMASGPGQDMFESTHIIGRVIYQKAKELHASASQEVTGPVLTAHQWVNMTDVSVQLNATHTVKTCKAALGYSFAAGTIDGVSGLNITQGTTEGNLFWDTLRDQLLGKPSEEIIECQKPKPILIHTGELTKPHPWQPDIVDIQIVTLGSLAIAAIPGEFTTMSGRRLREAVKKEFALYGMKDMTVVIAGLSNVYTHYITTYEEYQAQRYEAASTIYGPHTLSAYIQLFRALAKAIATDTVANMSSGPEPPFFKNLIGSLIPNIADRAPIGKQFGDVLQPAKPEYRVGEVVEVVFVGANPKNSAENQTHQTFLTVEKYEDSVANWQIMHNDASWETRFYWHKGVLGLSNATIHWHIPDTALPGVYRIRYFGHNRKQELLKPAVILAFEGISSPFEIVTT

Compound	Estimated IC50 (mole %) [1]	IC50 (50% inhibition of mt-CDase activity)	Estimated IC50 (mole %) [2]	effect on mt-CDase activity (in words)	other results
CCCCCCCCCCCCC/C=C/[C@H](O)[C@@H](CO)NC(=O)CCCCCCCCCCCCCCCCC [L-e-C18-Cer, L-erythro-C18-ceramide]	0.26 mole %	0.26 mole %			IC50: 20 µM; type of inhibition (double reciprocal analysis: Km increased, Vmax unchanged): competitive
CCCCCCCCCCCCC/C=C/[C@@H](O)[C@@H](N)COP(=O)(O)O [Sph-1-P, D-erythro-sphingosine 1-phosphate]			activator		increase in ceramide hydrolysis: 180%
CCCCCCCCCCCCC/C=C/[C@H](O)[C@H](N)CO [L-e-Sph, L-erythro-sphingosine]			0.09 mole %		extent of inhibition of ceramidase: 98%
CCCCCCCCCCCCC/C=C/C(=O)[C@@H](N)CO [Compound 3-keto-Sph, 3-keto-sphingosine]			weak	weaker; also recorded: significant loss of inhibition	inhibition at 50 µM [3]: 35%
CCCCCCCCCCCCC/C=C/[C@H](O)[C@H](CO)NC(=O)CCCCCCCCCCCCCCCCC [L-t-C18-Cer, L-threo-C18-ceramide]	0.11 mole %	0.11 mole %			IC50: 8.8 µM
CCCCCCCCCCCCC/C=C/[C@@H](O)[C@H](N)CO [D-t-Sph, D-threo-sphingosine]			0.11 mole %		extent of inhibition of ceramidase: 75%
CCCCCCCCCCCCCCC[C@@H](O)[C@@H](N)CO [D-e-dh-Sph, D-erythro-dihydrosphingosine]		0.20 mole % and 0.34 mole %	0.34 mole %		
CCCCCCCCCCCCCC#C[C@@H](O)[C@@H](N)CO [D-e-deh-Sph, D-erythro-dehydrosphingosine]		0.25 mole %	0.25 mole %		inhibition at 50 µM [3]: 75%
CCCCCCCCCCCCCCCC(=O)O [palmitic acid, reference compound]				no significant variation	
CCCCCCCCCCCCC/C=C/[C@@H](O)[C@H](CO)N(C)C [N,N-diMe-Sph, N,N-dimethyl-D-erythro-sphingosine]			weak	weaker; also recorded: profound loss of activity	maximal inhibition of mt-CDase (inhibitor at 2.5 mole %): 30%
dihydroceramide [reference compound]					hydrolysis by mt-CDase (substrate or not, in words): significant loss of activity as a substrate
CCCCCCCCCCCCC/C=C/[C@@H](O)[C@H](CO)NC(=O)CCCCCCCCCCCCCCCCC [D-e-C18-Cer, D-erythro-C18-ceramide, reference compound]	substrate				
CCCCCCCCCCCCC/C=C/[C@@H](O)[C@@H](N)CO [D-e-Sph, D-erythro-sphingosine, reference compound]		0.04 mole %	0.04 mole %		inhibition of mt-CDase activity: totally inhibited; inhibition at 50 µM [3]: 98%; IC50: 3.3 µM
CCCCCCCCCCCCC/C=C/C(=O)[C@H](CO)NC(=O)CCCCCCCCCCCCCCC [3-keto-C16-Cer, 3-keto-C16-ceramide]	0.6 mole %	0.60 mole %			hydrolysis by mt-CDase (substrate or not, in words): served as a substrate; inhibition at 50 µM [3]: 53%; type of inhibition (double reciprocal analysis: Km increased, Vmax unchanged): competitive substrate
CCCCCCCCCCCCCC#CC(=O)[C@@H](N)CO [3-keto-deh-Sph, 3-keto-dehydrosphingosine]			weak	weaker	inhibition at 50 µM [3]: 15%
CCCCCCCCCCCCC/C=C/[C@H](O)[C@@H](N)CO [L-t-Sph, L-threo-sphingosine]			0.14 mole %		extent of inhibition of ceramidase: 60%
CCCCCCCCCCCCC/C=C\[C@@H](O)[C@H](CO)NC(=O)CCCCCCCCCCCCCCC [cis-D-e-C16-Cer, cis-D-erythro-C16-ceramide]	no effect			no significant effect	effect on mt-CDase activity (in words) (listed as cis D-erythro-ceramide): did not inhibit the enzyme; effect on mt-CDase activity (in words) (listed as cis-D-e-ceramide): do not interact with the enzyme
CCCCCCCCCCCCC/C=C\[C@@H](O)[C@@H](N)CO [cis-D-e-Sph, cis-D-erythro-sphingosine]			weak	weaker; also recorded: no effect; also recorded: weak inhibitor	maximal inhibition of ceramide hydrolysis (at higher concentrations, greater than 2 mole %): 32%; inhibition at 50 µM [3]: 10%
CCCCCCCCCCCCC/C=C/[C@@H](O)[C@@H](N)COC [Compound 1-O-Me-Sph, 1-O-methyl-D-erythro-sphingosine]			weak	weaker	inhibition of mt-CDase activity: ~25%
CCCCCCCCCCCCC/C=C/[C@@H](O)[C@H](CO)N(C)C(=O)CCCCCCCCCCCCCCC [N-Me-C16-Cer, N-methyl-D-erythro-C16-ceramide]	no effect				effect on mt-CDase activity (in words) (listed as N-Me-Cer): loss of the interaction; effect on mt-CDase activity (in words) (listed as N-Me-ceramide): do not interact with the enzyme; effect on mt-CDase activity (in words) (listed as N-methyl-ceramide): did not affect ceramidase activity
CCCCCCCCCCCCCCCC(=O)C(N)CO (stereo not shown) [3-keto-dh-Sph, 3-keto-dihydrosphingosine]		0.34 mole %	0.2 mole %	potent inhibitor	inhibition (maximal inhibition) of mt-CDase activity [3]: 75%
CCCCCCCCCCCCC/C=C/[C@@H](OC)[C@H](CO)NC(=O)CCCCCCCCCCCCCCC [3-O-Me-C16-Cer, 3-O-methyl-D-erythro-C16-ceramide]	no effect				effect on mt-CDase activity (in words) (listed as 3-O-Me-ceramide): do not interact with the enzyme; effect on mt-CDase activity (in words) (listed as 3-O-methyl ceramide): no effect
ceramide [reference compound]					Km of hydrolysis (ceramide as substrate): 1.3 mole %
CCCCCCCCCCCCC/C=C/[C@@H](OC)[C@@H](N)CO [Compound 3-O-Me-Sph, 3-O-methyl-D-erythro-sphingosine]			no effect		inhibition of mt-CDase activity: no effect
CCCCCCCCCCCCC/C=C/[C@@H](O)[C@H](COP(=O)(O)O)NC(=O)CCCCCCCCCCCCCCC [Cer-1-P, D-erythro-C16-ceramide-1-phosphate]	activator			do not interact with the enzyme	increase in ceramide hydrolysis: 220%
CCCCCCCCCCCCC/C=C/[C@@H](O)[C@@H](CO)NC(=O)CCCCCCCCCCCCCCCCC [D-t-C18-Cer, D-threo-C18-ceramide]	0.21 mole %	0.21 mole %			IC50: 16.6 µM
CCCCCCCCCCCCC/C=C/[C@@H](O)[C@H](CO)NC [N-Me-Sph, N-methyl-D-erythro-sphingosine]		0.13 mole %	0.13 mole %		inhibitory effect on mt-CDase (FIG. 6a, concentration not stated directly): 75%
CCCCCCCCCCCCC/C=C/[C@@H](O)[C@H](CO)NCCCCCCCCCCCCCCCCCC [Compound C18-Ceramine, N-stearyl-D-erythro-sphingosine]			0.5 mole %		inhibition at 100 µM (inhibitor at 1.25 mole % (100 μM)): 75%; type of inhibition (double reciprocal analysis: Km increased, Vmax unchanged): competitive inhibitor
CCCCCCCCCCCCC/C=C/[C@@H](O)[C@H](COC)NC(=O)CCCCCCCCCCCCCCC [1-O-Me-C16-Cer, 1-O-methyl-D-erythro-C16-ceramide]	no effect				effect on mt-CDase activity (in words) (listed as 1-O-Me-ceramide): do not interact with the enzyme; effect on mt-CDase activity (in words) (listed as 1-O-methyl ceramide): no effect
